Entries after “also recorded” stand apart in the source; their conditions may differ. Where two headings read alike, the source gives them in different places.
System: Antibodies to HIV-1
Format: binding, human
Description: Alternative methods of testing immunologic cross-reactivity were also used. In one such method L5 Peptides 39 and 39GC were tested by ELISA as previously described in U.S. Pat. No. 4,629,783. Briefly, stock solutions of peptides 39 and 39-GC were prepared in 6M Gu-HCl. Working dilutions of 20 µg/ml and 6 μg/ml respectively were prepared by dilution of stock solution 0 with 0.05M carbonate/bicarbonate buffer, pH 9.5. Wells of microtiter plates were filled with 100 μl of the working dilution of the peptides and allowed to stand overnight at room temperature. Coating solution was removed and 300 μl of blocking solution supra containing 0.5M ethanolamine was added for 1 hr. at room temperature. Blocking solution was removed and the plates were used immediately or allowed to dry and stored for later use.
Plasma samples were diluted (See Table 1) in sample dilution buffer (above) and 100 μl was added to individual wells. Samples were incubated for 30 min. at 37° C., then removed and the wells were washed six times with 0.15M NaCl, 0.05% Tween 20. One hundred microliters of goat antihuman Ig-horseradish peroxidase conjugate diluted in citrate buffer, pH 7.0, 1% normal goat serum was added to each well for 30 min at 37° C. prior to washing six times as above. The ELISA assay was developed by adding 100 μl/well of substrate solution (80 μg/ml tetramethyl benzidine, 0.0015% hydrogen peroxide in citrate/phosphate buffer, pH 6.0) for 30 min. at room temperature. Reactions were stopped with the addition of 100 μl of H2SO4 per well, and the ratio of the optical density at 450 nm to 630 nm was determined by an automated ELISA reader. The cutoff value for a positive result was set at 0.225 Absorbance Units above the average absorbance obtained for three known negative samples.

Cys-Gly-Gly-Arg-Ile-Leu-Ala-Val-Glu-Arg-Tyr-Leu-Lys-Asp-Gln-Gln-Leu-Leu-Gly-Ile-Trp-Gly-Cys*-Ser-Gly-Lys-Leu-Ile-Cys*-NH2 [Peptide 39GC]
Diagnosis by ELISA (PlasmaG (1:40)): Pos/Pos | ELISA optical density (450 nm/630 nm) (PlasmaG (1:40)): 0.895 | Diagnosis by ELISA (PlasmaG (1:80)): Pos | ELISA optical density (450 nm/630 nm) (PlasmaG (1:80)): 0.820 | Diagnosis by ELISA (PlasmaG (1:160)): Pos | ELISA optical density (450 nm/630 nm) (PlasmaG (1:160)): 0.575 | Diagnosis by ELISA (PlasmaG (1:320)): Neg/Neg | ELISA optical density (450 nm/630 nm) (PlasmaG (1:320)): 0.349 | Diagnosis by ELISA (PlasmaG (1:640)): Neg/Neg | ELISA optical density (450 nm/630 nm) (PlasmaG (1:640)): 0.179 | Diagnosis by ELISA (PlasmaG (1:1280)): Neg/Neg | ELISA optical density (450 nm/630 nm) (PlasmaG (1:1280)): 0.107 | Diagnosis by ELISA (PlasmaO (1:40)): Pos/Pos | ELISA optical density (450 nm/630 nm) (PlasmaO (1:40)): 1.439 | Diagnosis by ELISA (PlasmaO (1:80)): Pos/Pos | ELISA optical density (450 nm/630 nm) (PlasmaO (1:80)): 1.010 | Diagnosis by ELISA (PlasmaO (1:160)): Pos/Pos | ELISA optical density (450 nm/630 nm) (PlasmaO (1:160)): 0.742 | Diagnosis by ELISA (PlasmaO (1:320)): Pos | ELISA optical density (450 nm/630 nm) (PlasmaO (1:320)): 0.397 | Diagnosis by ELISA (PlasmaO (1:640)): Neg/Neg | ELISA optical density (450 nm/630 nm) (PlasmaO (1:640)): 0.279 | Diagnosis by ELISA (PlasmaO (1:1280)): Neg/Neg | ELISA optical density (450 nm/630 nm) (PlasmaO (1:1280)): 0.165 | dilution giving a positive result, compared with Peptide 39 (plasma dilution panel, Table 1): positive result at a higher dilution than Peptide 39 | ELISA optical density (seroconversion panel sample BBI-1): 0.347 | ELISA optical density (seroconversion panel sample BBI-2): 0.317 | ELISA optical density (seroconversion panel sample BBI-3): 0.842 | ELISA optical density (seroconversion panel sample BBI-4): 1.105 | ELISA optical density (seroconversion panel sample BBI-5): 1.757 | ELISA optical density (seroconversion panel sample BBI-6): 2.160 | ELISA optical density (seroconversion panel sample BBI-7): 1.986 | ELISA optical density (seroconversion panel sample BBI-8): 2.317 | ELISA optical density (seroconversion panel sample BBI-9): 2.328 | ELISA optical density (seroconversion panel sample BBI-20): 0.136 | ELISA optical density (seroconversion panel sample BBI-21): 0.158 | ELISA optical density (seroconversion panel sample BBI-22): 0.450 | ELISA optical density (seroconversion panel sample BBI-23): 0.890 | ELISA optical density (seroconversion panel sample BBI-24): 1.064 | ELISA optical density (seroconversion panel sample BBI-25): 0.845 | ELISA optical density (seroconversion panel sample BBI-26): 0.852 | ELISA optical density (seroconversion panel sample BBI-27): 1.104 | ELISA optical density (seroconversion panel sample BBI-28): 1.177 | ELISA optical density (seroconversion panel sample BBI-29): 2.085 | ELISA optical density (seroconversion panel sample BBI-30): 2.214 | ELISA optical density (seroconversion panel sample BBI-31): 2.207 | ELISA optical density (seroconversion panel sample BBI-32): 2.263 | ELISA optical density (seroconversion panel sample BBI-33): 2.277 | ELISA optical density (seroconversion panel sample BBI-34): 1.622 | ELISA optical density (seroconversion panel sample BBI-35): 2.198 | ELISA optical density (seroconversion panel sample BBI-36): 2.265 | ELISA optical density (seroconversion panel sample BBI-37): 2.105 | time of first positive result on seroconversion panels (two seroconversion panels, Table 4): positive result earlier than whole virus ELISA; also recorded: positive result earlier than peptide 39 on one of the seroconversion panels

Source: patent publication US20030215788A1, “Cysteine thiol-protected peptides for use in immunoassays” (priority 1989, published 2003)
